# Assay results: patent US20220289708A1, “SUBSTITUTED N-PHENYL URACILS, SALTS THEREOF AND THEIR USE AS HERBICIDAL AGENTS” (Bayer Aktiengesellschaft, priority 2019, published 2022)
# Columns and labels:
# Type in all cases: in vivo
# [1] = test system: Oryza sativa; test: Post-emergence crop plant compatibility; details: application rate 5 g/ha
# Experimental: a. Post-Emergence Herbicidal Action and Crop Plant Compatibility
# Seeds of monocotyledonous and dicotyledonous weeds and crop plants were placed in sandy loam in plastic or wood-fiber pots, covered with soil and cultivated in a greenhouse under controlled growth conditions. 2 to 3 weeks after sowing, the test plants were treated at the one-leaf stage. The compounds of the invention, formulated in the form of wettable powders (WP) or as emulsion concentrates (EC), were then sprayed onto the green parts of the plants as aqueous suspension or emulsion with addition of 0.5% additive at a water application rate of 600 l/ha (converted). After the test plants had been kept in the greenhouse under optimum growth conditions for about 3 weeks, the activity of the preparations was rated visually in comparison to untreated controls. For example, 100% activity=the plants have died, 0% activity=like control plants.
# Tables A16 to A19 below show the crop plant compatibilities of selected compounds of the general formula (I) according to Tables I.1 to I.36 at an application rate corresponding to 5 g/ha or 20 g/ha, which were obtained in experiments according to the experimental procedure mentioned above. Here, the observed effects on selected crop plants are stated in comparison to the untreated controls (values in %).
# [2] = test system: Stellaria media; test: Post-emergence herbicidal action; details: application rate 5 g/ha, rated visually after about 3 weeks vs untreated controls
# In short: (§1)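 Post-em spray, one-leaf stage (2–3 wk post-sowing), sandy loam, greenhouse. WP/EC in aqueous suspension/emulsion + 0.5% additive, 600 l/ha water, ≤20 g/ha. Visual % rating ~3 wk vs untreated: 100% dead, 0% like control.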
# [3] = test system: Pharbitis purpurea; test: Post-emergence herbicidal action; details: application rate 5 g/ha, rated visually after about 3 weeks vs untreated controls
# In short: as §1
# [4] = test system: Matricaria inodora; test: Post-emergence herbicidal action; details: rated visually after about 3 weeks vs untreated controls
# In short: as §1
# [5] = test system: Abutilon theophrasti; test: Post-emergence herbicidal action; details: rated visually after about 3 weeks vs untreated controls
# In short: as §1
# [6] = test system: Hordeum murinum; test: Post-emergence herbicidal action
# In short: as §1
# [7] = test system: Polygonum convolvulus; test: Post-emergence herbicidal action; details: application rate 5 g/ha
# In short: as §1
# [8] = test system: Echinochloa crus-galli; test: Post-emergence herbicidal action; details: rated visually after about 3 weeks vs untreated controls
# In short: as §1
# [9] = test system: Alopecurus myosuroides; test: Post-emergence herbicidal action; details: rated visually after about 3 weeks vs untreated controls
# In short: as §1
# [10] = test system: Amaranthus retroflexus; test: Post-emergence herbicidal action; details: rated visually after about 3 weeks vs untreated controls
# In short: as §1
# [11] = test system: Viola tricolor; test: Post-emergence herbicidal action; details: application rate 5 g/ha
# In short: as §1
# [12] = test system: Setaria viridis; test: Post-emergence herbicidal action; details: application rate 5 g/ha, rated visually after about 3 weeks vs untreated controls
# In short: as §1
# [13] = test system: Veronica persica; test: Post-emergence herbicidal action
# In short: as §1
# [14] = test system: Digitaria sanguinalis; test: Post-emergence herbicidal action; details: rated visually after about 3 weeks vs untreated controls
# In short: as §1
# [15] = test system: Avena fatua; test: Post-emergence herbicidal action; details: rated visually after about 3 weeks vs untreated controls
# In short: as §1
# [16] = test system: Lolium rigidum; test: Post-emergence herbicidal action; details: rated visually after about 3 weeks vs untreated controls
# In short: as §1
# [17] = test system: Pharbitis purpurea; test: Pre-emergence herbicidal action; details: application rate 20 g/ha
# Excerpt: (§2) B. Pre-Emergence Herbicidal Action and Crop Plant Compatibility Seeds of monocotyledonous and dicotyledonous weed plants and crop plants were placed in plastic or organic planting pots and covered with soil. The compounds of the invention, formulated in the form of wettable powders (WP) or as emulsion concentrates (EC), were then applied to the surface of the covering soil as aqueous suspension or emulsion with addition of 0.5% additive at a water application rate equivalent to 600 l/ha (converted). After the treatment, the pots were placed in a greenhouse and kept under good growth conditions for the test plants. After about 3 weeks, the effect of the preparations was scored visually in comparison with untreated controls as percentages. For example, 100% activity=the plants have died, 0% activity=like control plants. Tables B1 to B13 below show the effects of selected compounds of the general formula (I) according to Tables I.1 to I.36 on various harmful plants and at an application rate corresponding to 80 g/ha or less, which were obtained by the experimental procedure mentioned above.
# [18] = test system: Matricaria inodora; test: Pre-emergence herbicidal action; details: application rate 20 g/ha
# Excerpt: as §2
# [19] = test system: Abutilon theophrasti; test: Pre-emergence herbicidal action; details: application rate 20 g/ha
# Excerpt: as §2
# [20] = test system: Polygonum convolvulus; test: Pre-emergence herbicidal action; details: application rate 20 g/ha
# Excerpt: as §2
# [21] = test system: Echinochloa crus-galli; test: Pre-emergence herbicidal action; details: application rate 20 g/ha
# Excerpt: as §2
# [22] = test system: Alopecurus myosuroides; test: Pre-emergence herbicidal action; details: application rate 80 g/ha
# Excerpt: as §2
# [23] = test system: Amaranthus retroflexus; test: Pre-emergence herbicidal action; details: application rate 20 g/ha
# Excerpt: as §2
# [24] = test system: Viola tricolor; test: Pre-emergence herbicidal action; details: application rate 20 g/ha
# Excerpt: as §2
# [25] = test system: Avena fatua; test: Pre-emergence herbicidal action; details: application rate 80 g/ha
# Excerpt: as §2
# [26] = test system: Setaria viridis; test: Pre-emergence herbicidal action; details: application rate 20 g/ha
# Excerpt: as §2
# [27] = test system: Veronica persica; test: Pre-emergence herbicidal action; details: application rate 20 g/ha
# Excerpt: as §2
# [28] = test system: Digitaria sanguinalis; test: Pre-emergence herbicidal action; details: application rate 20 g/ha
# Excerpt: as §2
# [29] = test system: Lolium rigidum; test: Pre-emergence herbicidal action; details: application rate 80 g/ha
# Excerpt: as §2
Structure (SMILES),Oryza sativa (efficacy in %) [1] [%],Stellaria media (efficacy in %) [2] [%],Pharbitis purpurea (efficacy in %) [3] [%],Matricaria inodora (efficacy in %) ([4]; application rate 5 g/ha) [%],Abutilon theophrasti (efficacy in %) ([5]; application rate 5 g/ha) [%],Hordeum murinum (efficacy in %) ([6]; application rate 20 g/ha) [%],Polygonum convolvulus (efficacy in %) [7] [%],Alopecurus myosuroides (efficacy in %) ([9]; application rate 20 g/ha) [%],Amaranthus retroflexus (efficacy in %) ([10]; application rate 5 g/ha) [%],Viola tricolor (efficacy in %) [11] [%],Setaria viridis (efficacy in %) [12] [%],Veronica persica (efficacy in %) ([13]; application rate 20 g/ha) [%],Digitaria sanguinalis (efficacy in %) ([14]; application rate 20 g/ha) [%],Matricaria inodora (efficacy in %) ([4]; application rate 20 g/ha) [%],Echinochloa crus-galli (efficacy in %) ([8]; application rate 5 g/ha) [%],Alopecurus myosuroides (efficacy in %) ([9]; application rate 5 g/ha) [%],Hordeum murinum (efficacy in %) ([6]; application rate 5 g/ha) [%],Avena fatua (efficacy in %) ([15]; application rate 5 g/ha) [%],Veronica persica (efficacy in %) ([13]; application rate 5 g/ha) [%],Digitaria sanguinalis (efficacy in %) ([14]; application rate 5 g/ha) [%],other results
Cn1c(C(F)(F)F)cc(=O)n(-c2cc(Sc3cccnc3SCC(=O)OC3COC3)c(Cl)cc2F)c1=O [I.10-115],20,100,100,90,100,80,100,80,100,100,100,100,100,,,,,,,,Echinochloa crus-galli (efficacy in %) ([8]; application rate 20 g/ha): 100%
Cn1c(C(F)(F)F)cc(=O)n(-c2cc(Sc3cccnc3SCC(=O)OCC#N)c(Cl)cc2F)c1=O [I.10-176],20,100,90,,,80,100,,,100,100,80,100,100,100,80,,,,,Abutilon theophrasti (efficacy in %) ([5]; application rate 20 g/ha): 100%; Amaranthus retroflexus (efficacy in %) ([10]; application rate 20 g/ha): 100%
COCCOCCOC(=O)COc1ncccc1Oc1cc(-n2c(=O)cc(C(F)(F)F)n(C)c2=O)c(F)cc1Cl [I.15-23],,100,100,90,100,,100,100,100,100,100,,,,100,,80,80,100,100,Lolium rigidum (efficacy in %) ([16]; application rate 5 g/ha): 80%
Cn1c(C(F)(F)F)cc(=O)n(-c2cc(Oc3cccnc3OCC(=O)OCC3CCCO3)c(Cl)cc2F)c1=O (stereo not drawn) [I.15-71],,100,100,,100,100,100,,100,100,100,,,100,100,90,,,100,100,Avena fatua (efficacy in %) ([15]; application rate 20 g/ha): 80%; Lolium rigidum (efficacy in %) ([16]; application rate 20 g/ha): 100%
"Cn1c(C(F)(F)F)cc(=O)n(-c2cc(Oc3cccnc3OCC(=O)OCC3CCOC3)c(Cl)cc2F)c1=O (stereo not drawn) [I.15-72, Tetrahydrofuran-3-ylmethyl [(3-{2-chloro-4-fluoro-5-[3-methyl-2,6-dioxo-4-(trifluoromethyl)-3,6-dihydropyrimidin-1(2H)-yl]phenoxy}pyridin-2-yl)oxy]acetate]",,100,100,90,100,,100,,100,100,100,,,,100,90,90,80,100,100,Lolium rigidum (efficacy in %) ([16]; application rate 20 g/ha): 100%
Cn1c(C(F)(F)F)cc(=O)n(-c2cc(Oc3cccnc3OCC(=O)OCc3ccncc3)c(Cl)cc2F)c1=O [I.15-288],0,,100,90,100,,,,100,,,,,,100,,,,100,,Pharbitis purpurea (efficacy in %) [17]: 100%; Matricaria inodora (efficacy in %) [18]: 100%; Abutilon theophrasti (efficacy in %) [19]: 100%; Polygonum convolvulus (efficacy in %) [20]: 100%; Echinochloa crus-galli (efficacy in %) [21]: 80%; Alopecurus myosuroides (efficacy in %) [22]: 100%; Amaranthus retroflexus (efficacy in %) [23]: 100%; Viola tricolor (efficacy in %) [24]: 100%; Avena fatua (efficacy in %) [25]: 100%; Setaria viridis (efficacy in %) [26]: 100%; Veronica persica (efficacy in %) [27]: 100%; Digitaria sanguinalis (efficacy in %) [28]: 100%; Lolium rigidum (efficacy in %) [29]: 100%
